PubChem BioAssay (NCI)
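96-well plates; 48 h exposure; 5 concentrations. Endpoints by linear interpolation between flanking doses. Not reached: highest tested concentration assigned. TGI: concentration producing complete growth inhibition.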

Key:
Experiment in all cases: growth of human tumour cells (NCI), 48 h
CAKI-1 renal = test system: CAKI-1 renal
ACHN renal = test system: ACHN renal
MALME-3M melanoma = test system: MALME-3M melanoma
HT29 colon = test system: HT29 colon
K-562 leukemia = test system: K-562 leukemia
M14 melanoma = test system: M14 melanoma
DU-145 prostate = test system: DU-145 prostate
NCI-H460 lung = test system: NCI-H460 lung
HOP-62 NSCLC = test system: HOP-62 NSCLC
SK-MEL-5 melanoma = test system: SK-MEL-5 melanoma
CCRF-CEM leukemia = test system: CCRF-CEM leukemia
SK-MEL-2 melanoma = test system: SK-MEL-2 melanoma
OVCAR-3 ovarian = test system: OVCAR-3 ovarian
HCC-2998 colon = test system: HCC-2998 colon
786-0 renal = test system: 786-0 renal
HOP-92 NSCLC = test system: HOP-92 NSCLC
NCI-H522 lung = test system: NCI-H522 lung

CC(=O)OCC(OC(C)=O)C(OC(C)=O)C(C=NN(C(C)=O)S(=O)(=O)c1ccc(/C=C2\NC(=O)NC2=O)cc1)OC(C)=O (centres undefined)
TGI (CAKI-1 renal): > 100 µM
TGI (ACHN renal): > 100 µM
TGI (MALME-3M melanoma): > 100 µM
TGI (HT29 colon): > 100 µM
TGI (K-562 leukemia): > 100 µM
TGI (M14 melanoma): > 100 µM
TGI (DU-145 prostate): > 100 µM
TGI (NCI-H460 lung): > 100 µM
TGI (HOP-62 NSCLC): > 100 µM
TGI (SK-MEL-5 melanoma): > 100 µM
TGI (CCRF-CEM leukemia): > 100 µM
TGI (SK-MEL-2 melanoma): > 100 µM
TGI (OVCAR-3 ovarian): > 100 µM
TGI (HCC-2998 colon): > 100 µM
TGI (786-0 renal): > 100 µM

CN(C)c1ccc(C=C2C(=O)OC(C)(C)OC2=O)cc1Br
TGI (CAKI-1 renal): > 100 µM
TGI (HOP-92 NSCLC): > 100 µM
TGI (ACHN renal): > 100 µM
TGI (MALME-3M melanoma): > 100 µM
TGI (HT29 colon): > 100 µM
TGI (K-562 leukemia): > 100 µM
TGI (M14 melanoma): > 100 µM
TGI (NCI-H460 lung): > 100 µM
TGI (HOP-62 NSCLC): > 100 µM
TGI (SK-MEL-5 melanoma): > 100 µM
TGI (CCRF-CEM leukemia): > 100 µM
TGI (SK-MEL-2 melanoma): > 100 µM
TGI (NCI-H522 lung): > 100 µM
TGI (OVCAR-3 ovarian): > 100 µM
TGI (HCC-2998 colon): > 100 µM
TGI (786-0 renal): > 100 µM

COc1ccc(NC(=O)C/C(C)=N\N=C(N)N)c([N+](=O)[O-])c1
TGI (CAKI-1 renal): > 100 µM
TGI (HOP-92 NSCLC): > 100 µM
TGI (ACHN renal): > 100 µM
TGI (MALME-3M melanoma): > 100 µM
TGI (HT29 colon): > 100 µM
TGI (K-562 leukemia): > 100 µM
TGI (M14 melanoma): > 100 µM
TGI (NCI-H460 lung): > 100 µM
TGI (HOP-62 NSCLC): > 100 µM
TGI (SK-MEL-5 melanoma): > 100 µM
TGI (CCRF-CEM leukemia): > 100 µM
TGI (SK-MEL-2 melanoma): > 100 µM
TGI (NCI-H522 lung): > 100 µM
TGI (OVCAR-3 ovarian): > 100 µM
TGI (HCC-2998 colon): > 100 µM
TGI (786-0 renal): > 100 µM

O=c1cc(-c2ccccc2)[nH]c2cc(O)ccc12
TGI (CAKI-1 renal): 71.6 µM
TGI (HOP-92 NSCLC): 70.3 µM
TGI (ACHN renal): 53.7 µM
TGI (MALME-3M melanoma): > 100 µM
TGI (HT29 colon): 46.1 µM
TGI (K-562 leukemia): 39.2 µM
TGI (M14 melanoma): 39 µM
TGI (NCI-H460 lung): 33.3 µM
TGI (HOP-62 NSCLC): 70.9 µM
TGI (SK-MEL-5 melanoma): 83.4 µM
TGI (CCRF-CEM leukemia): 42.6 µM
TGI (SK-MEL-2 melanoma): 94.9 µM
TGI (NCI-H522 lung): 76.2 µM
TGI (HCC-2998 colon): 74.7 µM
TGI (786-0 renal): > 100 µM

c1ccc2c(C3NCCc4[nH]cnc43)cccc2c1 (centres undefined)
TGI (CAKI-1 renal): > 100 µM
TGI (HOP-92 NSCLC): > 100 µM
TGI (ACHN renal): > 100 µM
TGI (HT29 colon): > 100 µM
TGI (K-562 leukemia): > 100 µM
TGI (M14 melanoma): > 100 µM
TGI (NCI-H460 lung): > 100 µM
TGI (HOP-62 NSCLC): > 100 µM
TGI (SK-MEL-5 melanoma): > 100 µM
TGI (CCRF-CEM leukemia): > 100 µM
TGI (SK-MEL-2 melanoma): > 100 µM
TGI (NCI-H522 lung): > 100 µM
TGI (OVCAR-3 ovarian): > 100 µM
TGI (HCC-2998 colon): > 100 µM
TGI (786-0 renal): > 100 µM

COc1cc(OC)c(/C=C2\N=C(C)N(Nc3nnc(NN4C(=O)/C(=C/c5c(OC)cc(OC)cc5OC)N=C4C)c4ccccc34)C2=O)c(OC)c1
TGI (HOP-92 NSCLC): > 100 µM
TGI (ACHN renal): > 100 µM
TGI (HT29 colon): > 100 µM
TGI (K-562 leukemia): > 100 µM
TGI (M14 melanoma): > 100 µM
TGI (NCI-H460 lung): > 100 µM
TGI (HOP-62 NSCLC): > 100 µM
TGI (SK-MEL-5 melanoma): > 100 µM
TGI (CCRF-CEM leukemia): > 100 µM
TGI (NCI-H522 lung): > 100 µM
TGI (786-0 renal): > 100 µM

O=C1C2CC=CCC2C(=O)N1n1c(-c2ccccc2)n[nH]c1=O (centres undefined)
TGI (CAKI-1 renal): > 100 µM
TGI (HOP-92 NSCLC): > 100 µM
TGI (ACHN renal): > 100 µM
TGI (MALME-3M melanoma): > 100 µM
TGI (HT29 colon): > 100 µM
TGI (K-562 leukemia): > 100 µM
TGI (M14 melanoma): > 100 µM
TGI (NCI-H460 lung): > 100 µM
TGI (HOP-62 NSCLC): > 100 µM
TGI (SK-MEL-5 melanoma): > 100 µM
TGI (CCRF-CEM leukemia): > 100 µM
TGI (SK-MEL-2 melanoma): > 100 µM
TGI (NCI-H522 lung): > 100 µM
TGI (OVCAR-3 ovarian): > 100 µM
TGI (HCC-2998 colon): > 100 µM
TGI (786-0 renal): > 100 µM
